Non-standard residues stand in square brackets, D forms with d. No end group written: not given here.
Columns and labels:
H4-IIE cells = test: Glucose production in cultured H4-IIE cells and insulin dependence; assay type: cell-based, rat; settings: 24 h; for Glucose Production, Percent of Control Activity No Insulin: peptide 10 μM alone, relative to untreated cells; for Glucose Production, Percent of Control Activity With Insulin: peptide 10 μM with 800 μM insulin, relative to insulin treated cells
Outline: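 Rat hepatoma cells incubated 24 h with peptides; glucose released into conditioned medium measured colorimetrically at 570 nm. Untreated cells serve as maximal-production reference, with insulin at […] as a modest inhibitor. Values are means of 2-4 independent experiments run in triplicate.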

C2C12 cells [1] = test: ATP levels in cultured C2C12 cells (CellTiter-Glo); assay type: cell-based, mouse; settings: peptide 10 μM, 3 days with readdition every 24 hours, relative to 0.1% DMSO control
Method: The effect of the peptides on cellular metabolism can be assessed using an assay of ATP levels in cultured cells such as mouse myoblast cells. Peptides were initially prepared as 10 mM stock in DMSO, diluted to 1 mM in H2O, and used at a final concentration of 10 μM (0.1% DMSO). […] Lovastatin was prepared as 10 mM stock in 70% Ethanol and used at final concentration of 10 μM containing 0.1% DMSO. CellTiter-Glo® Assay kit was purchased from Promega (Madison, Wis.). […] C2C12 cells were grown in DMEM medium supplemented with 20% FBS with 100 IU/ml penicillin and 100 μg/ml streptomycin. […] C2C12 cells were seeded at 800 cells per well on 96-well plates. […] ATP levels were determined using a CellTiter-Glo Assay kit according to the manufacturer's instructions. Luminescence for each sample well on the plate was measured using a Cytation 3 plate reader (BioTek, Winooski, Vt.). Activity was calculated relative to 0.1% DMSO treated control. The relative standard deviation of the result for the 0.1% DMSO treated control was <5%. […] ATP levels for treatment with lovastatin (10 μM) were <50% of the 0.1% DMSO treated control value.

C2C12 cells [2] = test: Cell proliferation in C2C12 cells (Cyquant DNA dye binding); assay type: cell-based, mouse; settings: peptide 10 μM, 72 hours with readdition every 24 hours, relative to 0.1% DMSO control
Method: The effect of the peptides on cell proliferation was assessed using a DNA dye binding assay in cultured cells such as mouse myoblast cells. Peptides were initially prepared as 10 mM stock in DMSO, diluted to 1 mM in H2O, and added at a final concentration of 10 μM (0.1% DMSO). Lovastatin was used as a growth arrest control at final concentration of 10 μM. […] C2C12 cells were grown in DMEM supplemented with 20% FBS with 100 IU/ml penicillin and 100 μg/ml streptomycin. […] C2C12 cells were seeded at 800 cells per well on 96-well plates. […] Cell proliferation was determined using Cyquant Direct Nucleic Acid Stain (Thermo Fisher Scientific, Waltham, Mass.) according to the manufacturer's instructions. Fluorescence for each sample well on the plate was measured using a Cytation 3 plate reader at Ex/Em=495/535 nm (BioTek, Winooski, Vt.). Activity was calculated relative to 0.1% DMSO untreated control. The relative standard deviation for the lovastatin control was <27%. The cell proliferation for the lovastatin control was <25% of the value for untreated control.

Male DIO mice = test: Metabolic parameters in diet induced obese (DIO) mice, Example 16; assay type: in vivo, mouse; settings: 5 mg/kg twice daily intraperitoneal, 10 days, N = 8
Method: Male C57BL/6 mice were maintained on a high fat diet for 18 weeks to develop diet induced obesity. Animals were randomized to treatment groups based on blood glucose levels and body weight. The peptides of the invention were administered to groups of male DIO mice twice daily by intraperitoneal injection at a dose of 5 mg/kg/dose for 10 days (N=8 animals per treatment group). An additional group of male DIO mice (n=8) received vehicle (water) alone administered twice daily by intraperitoneal injection. Body weight, blood glucose levels and food intake were monitored. Body mass distribution (fat vs lean) was determined by quantitative whole body NMR prior to dosing and at the end of dosing.

Apelin Receptor (APJ) [3] = molecular target: T1, Apelin Receptor (APJ) (Homo sapiens, UniProt P35414); test: β-Arrestin recruitment in CHO-K1 AGTRL1 β-Arrestin cells (PathHunter); assay type: cell-based; design: host or cells: CHO-K1 AGTRL1 β-Arrestin cell line; settings: peptide 10 μM, 90 min; 500 nM Apelin-13 response = 100%
T1 sequence (P35414 1-380): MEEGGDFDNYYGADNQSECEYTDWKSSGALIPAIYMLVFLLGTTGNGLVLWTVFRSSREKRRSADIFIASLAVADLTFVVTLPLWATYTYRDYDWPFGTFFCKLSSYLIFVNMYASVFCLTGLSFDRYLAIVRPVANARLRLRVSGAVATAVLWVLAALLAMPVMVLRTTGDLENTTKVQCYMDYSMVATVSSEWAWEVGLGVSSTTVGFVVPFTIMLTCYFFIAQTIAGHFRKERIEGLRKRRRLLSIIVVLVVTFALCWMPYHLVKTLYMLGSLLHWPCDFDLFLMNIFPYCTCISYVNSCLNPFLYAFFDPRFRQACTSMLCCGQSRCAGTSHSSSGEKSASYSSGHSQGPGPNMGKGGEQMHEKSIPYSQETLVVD

Apelin Receptor (APJ) [4] = molecular target: T1, Apelin Receptor (APJ); test: cAMP levels in CHO-K1 AGTRL1 Gi cells, single concentration (HitHunter); assay type: cell-based; design: host or cells: CHO-K1 AGTRL1 Gi cells; settings: peptide 10 μM with 10 μM forskolin, 30 min; 500 nM Pyr-Apelin-13 response = 100%

Row | β-Arrestin Recruitment, Percent of Apelin-13 Control Activity (Apelin Receptor (APJ) [3]) [%] | cAMP Levels, Percent of Pyr-Apelin-13 Control Activity (Apelin Receptor (APJ) [4]) [%] | Compound | Glucose Production, Percent of Control Activity No Insulin (H4-IIE cells) [%] | Glucose Production, Percent of Control Activity With Insulin (H4-IIE cells) [%] | ATP Levels, Percent of Control Activity (C2C12 cells [1]) [%] | Cell Proliferation, Percent of Control (C2C12 cells [2]) [%] | Difference from Vehicle Control: Decrease from Baseline in Blood Glucose (Male DIO mice) [mg/dL] | Difference from Vehicle Control: Decrease from Baseline in Body Weight (Male DIO mice) [%] | Difference from Vehicle Control: Decrease from Baseline in Fat Mass (Male DIO mice) [g]
1 | – | – | 18 (RRXXGXVFQCLCGA; (3)..(3) Xaa is Norleucine; (4)..(4) Xaa is Norleucine; (6)..(6) Xaa is Norleucine; (14)..(14) D-Ala) [compound 18] | 103.1 | 140.4 | 95.5 | 74.9 | – | – | –
2 | – | – | 11 (RRMMGMVAQCLCGA) [compound 11] | 96.6 | 57.5 | 98.0 | 88.1 | -4.91 | −4.05 | -2.34
3 | – | – | 16 (RRMMGMVFQCLSG[dA]) [compound 16] | 99.8 | 56.8 | 94.7 | 89.6 | – | – | –
4 | – | – | 12 (RRMMGMVEQCLCG[dA]; cysteine pairing not given here) [compound 12] | 96.4 | 44.8 | 102.6 | 119.3 | -6.75 | −2.89 | -1.73
5 | 40 | 105 | CSCC[C@H](NC(=O)CNC(=O)[C@H](CCSC)NC(=O)[C@H](CCSC)NC(=O)[C@H](CCCNC(=N)N)NC(=O)[C@@H](N)CCCNC(=N)N)C(=O)N[C@H](C(=O)N[C@@H](Cc1ccccc1)C(=O)N[C@@H](CCC(N)=O)C(=O)N[C@@H](CO)C(=O)N[C@@H](CC(C)C)C(=O)N[C@@H](CS)C(=O)NCC(=O)N[C@H](C)C(=O)O)C(C)C [compound 15] | 101.4 | 63.9 | 100.4 | 93.5 | – | – | –
6 | – | – | 17 (RRMMGMVFQSLSG[dA]) [compound 17] | 101.7 | 95.5 | 100.0 | 89.1 | – | – | –
7 | – | – | 10 (RRMMGMVYQCLCG[dA]; cysteine pairing not given here) [compound 10] | 92.2 | 38.2 | 100.9 | 101.5 | -8.37 | −5.47 | -2.16
8 | – | – | 19 (RRMVFQCLCG[dA]; cysteine pairing not given here) [compound 19] | 100.8 | 68.9 | 93.6 | 92.3 | – | – | –
9 | – | – | 8 (RRMMGMVFQCLCG[dA]; cysteine pairing not given here) [compound 8] | 78.9 | 102.8 | 99.5 | 98.1 | -16.9 | −8.01 | -3.88
10 | 91 | 109 | CSCC[C@H](NC(=O)CNC(=O)[C@H](CCSC)NC(=O)[C@H](CCSC)NC(=O)[C@H](CCCNC(=N)N)NC(=O)[C@H](CCCNC(=N)N)NC(=O)[C@@H](N)CCSC)C(=O)N[C@H](C(=O)N[C@@H](Cc1ccccc1)C(=O)N[C@@H](CCC(N)=O)C(=O)N[C@@H](CS)C(=O)N[C@@H](CC(C)C)C(=O)N[C@@H](CS)C(=O)NCC(=O)N[C@@H](CC(C)C)C(=O)O)C(C)C [compound 7] | 54.2 | 64.2 | 106.6 | 94.0 | -20.0 | −3.19 | -0.84
11 | – | – | 14 (RRMMGMVFQCLEG[dA]) [compound 14] | 104.4 | 159.6 | 102.1 | 97.2 | – | – | –
12 | – | – | 13 (RRMMGMVFQELCG[dA]) [compound 13] | 100.9 | 68 | 102.8 | 90.0 | – | – | –
